Test results taken from patent US20050288230A1, “Non-steroidal anti-androgen therapy” (AstraZeneca AB, priority 2002, published 2005).

Tests used:
[1] = tested on: patients; settings: Casodex 150 monotherapy, preliminary data; cited from earlier work
[2] = tested on: humans; settings: single agent therapy, blood; cited from earlier work
[3] = tested on: patients; assay: Randomized open-label study: change in BMD by DEXA, bicalutamide 150 mg daily vs medical castration; assay type: in vivo, human; settings: for lumbar spine BMD increase compared to pre-treatment baseline: 150 mg
Experimental: Inclusion criteria for a prospective, multicentre, randomized, open-label, parallel-group study, included: disease stage T1-T4, Nx, and M0 for which immediate hormonal ablation was indicated; and Eastern Cooperative Oncology Group (ECOG) performance status 0 or 1.
Patients were randomized in a 1:1 ratio to receive either bicalutamide 150 mg daily or medical castration with a luteinizing hormone-releasing hormone (LHRH) agonist for 2 years.
Primary efficacy endpoints were percentage change from baseline in BMD measures (lumbar spine and hip) at 96 weeks.
An analysis of covariance (ANCOVA) model was used to analyse the primary efficacy endpoints. Analysis was performed for patients for whom data were available at baseline and at Week 96. Subsidiary analyses were performed, carrying forward the last patient assessment at time points where data were missing. A p value of ≦0.017 was considered statistically significant.
Secondary endpoints included: percentage change in lumbar spine-BMD and hip-BMD from baseline to 24, 48 and 72 weeks.
Secondary efficacy endpoints were also analyzed using an ANCOVA model. BMD were assessed via dual energy X-ray absorptiometry (DEXA).
103 patients were recruited to the study and randomized 1:1 to receive either bicalutamide (R/S racemate) 150 mg (n=51) or medical castration (n=52). • The treatment groups were well balanced at baseline (Table 1). • The median testosterone level at baseline was 414.7 ng/dL in the bicalutamide 150 mg group (n=48) and 477.9 ng/dL in the medical castration group (n=52). • Median baseline values for albumin, total calcium, 25-hydroxy vitamin D, and thyroid-stimulating hormone were similar in the two treatment groups. Bone Mineral Density

[4] = tested on: adult men; settings: cited from earlier work

Compound	bone mineral density (in words) [1]	basal level of total testosterone [2]	lumbar spine BMD increase compared to pre-treatment baseline ([3]; 24 weeks)	lumbar spine BMD increase compared to pre-treatment baseline ([3]; 48 weeks)	lumbar spine BMD increase compared to pre-treatment baseline ([3]; 72 weeks)	BMD compared to baseline (in words) ([3]; in vivo)	testosterone and LH (in words) [4]
CC(O)(CS(=O)(=O)c1ccc(F)cc1)C(=O)Nc1ccc(C#N)c(C(F)(F)F)c1 (stereo not drawn) [Bicalutamide, 4′-cyano-α′,α′,α′-trifluoro-3-(4-fluorophenylsulphonyl)-2-hydroxy-2-methylpropiono-m-toluidide]	maintains bone mineral density	approximate doubling	1.05%	1.76%	2.22%	statistically significant increase in BMD compared to baseline	–
CC/C(=C(\c1ccccc1)c1ccc(OCCN(C)C)cc1)c1ccccc1 [tamoxifen]	–	–	–	–	–	–	increase testosterone and LH
